Assays:
Zika virus = assay: EC50 is reported via analysis of immunofluorescence staining. The assay has been performed by Icahn School of Medicine at Mount Sinai.; type: functional, organism-based, Chlorocebus sabaeus, VeroE6/TMPRSS2; conditions: Zika virus; for EC90: P-gp concentration 2 uM, P-gp inhibitor Elacidar
dengue virus type 2 = assay: Functional immunofluorescence assay to measure dose dependent changes in antiviral-drug inhibitory efficacy against Dengue virus type 2 Thailand/16681/84 in Vero E6/TMPRSS2 cells (cotreated with P-gp inhibitor, Elacridar). Cells are treated with antiviral candidates that are serially diluted, following infection, cells are fixed. EC50 is reported via analysis of immunofluorescence staining. The assay has been performed by Icahn School of Medicine at Mount Sinai.; type: organism-based, Chlorocebus sabaeus, VeroE6/TMPRSS2; conditions: Dengue virus; for EC90: P-gp concentration 2 uM, P-gp inhibitor Elacidar

For `N#Cc1cc(Cl)cc(C(=O)Nc2ccc3c(c2)CNC3)c1`, the EC50 (Zika virus; VeroE6/TMPRSS2) was 47.2 µM, the EC90 (Zika virus; VeroE6/TMPRSS2, Baseline response 0 %, Hill slope -12.375, Maximum measured 129.405 %, Maximum response 100 %, Minimum measured 33.162 %, R squared 0.602) was greater than 50 µM and the EC50 (dengue virus type 2; VeroE6/TMPRSS2) was greater than 50 µM. The EC90 (dengue virus type 2; VeroE6/TMPRSS2, Maximum measured 57.395 %, Minimum measured 32.413 %) was greater than 50 µM.
Work on `Cc1ccc(S(=O)(=O)CNC(=O)[C@H](Nc2ccc3c(c2)CNC3)c2cc(Cl)cc3[nH]ncc23)cc1` yielded an EC50 (Zika virus; VeroE6/TMPRSS2) greater than 5.56 µM, an EC90 (Zika virus; VeroE6/TMPRSS2, Baseline response 0 %, Hill slope -0.504, Maximum measured 105.322 %, Maximum response 100 %, Minimum measured 58.532 %, R squared 0.723) greater than 5.56 µM and an EC50 (dengue virus type 2; VeroE6/TMPRSS2) greater than 50 µM. The EC90 (dengue virus type 2; VeroE6/TMPRSS2, Baseline response 0 %, Hill slope 0.271, Maximum measured 147.697 %, Maximum response 100 %, Minimum measured 56.785 %, R squared 0.117) was greater than 50 µM.
For `O=C(Nc1ccc2c(c1)CNC2)c1cc(Cl)ccc1SC1CCCC1`, the EC50 (Zika virus; VeroE6/TMPRSS2) was greater than 16.7 µM, the EC90 (Zika virus; VeroE6/TMPRSS2, Maximum measured 121.888 %, Minimum measured 81.617 %) was greater than 16.7 µM and the EC50 (dengue virus type 2; VeroE6/TMPRSS2) was greater than 16.7 µM. The EC90 (dengue virus type 2; VeroE6/TMPRSS2, Maximum measured 58.655 %, Minimum measured 40.644 %) was greater than 16.7 µM.
`N#Cc1cc(Cl)cc([C@H](C#N)Nc2ccc3c(c2)CNC3)c1` was tested, and the EC50 (Zika virus; VeroE6/TMPRSS2) was greater than 50 µM, the EC90 (Zika virus; VeroE6/TMPRSS2, Baseline response 0 %, Hill slope -0.289, Maximum measured 115.578 %, Maximum response 100 %, Minimum measured 78.039 %, R squared 0.102) was greater than 50 µM and the EC50 (dengue virus type 2; VeroE6/TMPRSS2) was greater than 16.7 µM. It also gave an EC90 (dengue virus type 2; VeroE6/TMPRSS2, Maximum measured 121.447 %, Minimum measured 87.688 %) greater than 16.7 µM.
`O=C(Nc1ccc2c(c1)CNC2)c1cc(Br)cc2[nH]c(C3CCOCC3)nc12` was tested, and the EC50 (Zika virus; VeroE6/TMPRSS2) was greater than 5.56 µM, the EC90 (Zika virus; VeroE6/TMPRSS2, Maximum measured 127.67 %, Minimum measured 33.686 %) was greater than 5.56 µM and the EC50 (dengue virus type 2; VeroE6/TMPRSS2) was greater than 5.56 µM. The EC90 (dengue virus type 2; VeroE6/TMPRSS2, Maximum measured 89.147 %, Minimum measured 35.738 %) was greater than 5.56 µM.
Compound `Cc1ccc2cc(Cl)cc(C(=O)Nc3ccc4c(c3)CNC4)c2n1` has an EC50 (Zika virus; VeroE6/TMPRSS2) greater than 16.7 µM, an EC90 (Zika virus; VeroE6/TMPRSS2, Maximum measured 117.23 %, Minimum measured 34.966 %) greater than 16.7 µM and an EC50 (dengue virus type 2; VeroE6/TMPRSS2) greater than 5.56 µM. For the same compound, the EC90 (dengue virus type 2; VeroE6/TMPRSS2, Maximum measured 235.971 %, Minimum measured 154.17 %) was greater than 5.56 µM.
In the case of `O=C(Nc1cnc2c(c1)CNCC2)c1cc(Cl)cc2[nH]ncc12`, the EC50 (Zika virus; VeroE6/TMPRSS2) is reported as 45.4 µM, the EC90 (Zika virus; VeroE6/TMPRSS2, Baseline response 0 %, Hill slope -15.177, Maximum measured 54.077 %, Maximum response 44.083 %, Minimum measured 8.284 %, R squared 0.548) is reported as greater than 50 µM and the EC50 (dengue virus type 2; VeroE6/TMPRSS2) is reported as greater than 50 µM. For the same compound, the EC90 (dengue virus type 2; VeroE6/TMPRSS2, Maximum measured 104.893 %, Minimum measured 59 %) was greater than 50 µM.
With `O=C(NCC1CCOCC1)[C@H](Nc1ccc2c(c1)CNC2)c1cc(Cl)cc2[nH]ncc12` the EC50 (Zika virus; VeroE6/TMPRSS2) was greater than 16.7 µM, the EC90 (Zika virus; VeroE6/TMPRSS2, Maximum measured 73.647 %, Minimum measured 25.821 %) was greater than 16.7 µM and the EC50 (dengue virus type 2; VeroE6/TMPRSS2) was greater than 16.7 µM. For the same compound, the EC90 (dengue virus type 2; VeroE6/TMPRSS2, Maximum measured 245.258 %, Minimum measured 99.219 %) was greater than 16.7 µM.
For `CCOC(=O)[C@H]1[C@H](c2cc(Cl)cc(NC(=O)OCc3ccccc3)c2)[C@H]1c1cccc(-c2nnn[nH]2)c1`, the EC50 (Zika virus; VeroE6/TMPRSS2) was 39.5 µM, the EC90 (Zika virus; VeroE6/TMPRSS2, Baseline response 0 %, Hill slope -17.688, Maximum measured 145.242 %, Maximum response 100 %, Minimum measured 1.538 %, R squared 0.641) was 44.8 µM and the EC50 (dengue virus type 2; VeroE6/TMPRSS2) was 10.1 µM. For the same compound, the EC90 (dengue virus type 2; VeroE6/TMPRSS2, Baseline response 0 %, Hill slope -0.678, Maximum measured 159.228 %, Maximum response 100 %, Minimum measured 7.966 %, R squared 0.513) was greater than 50 µM.

From ChEMBL document CHEMBL5661943, “ASAP - In vitro antiviral effect” (2024)
